# In ChEMBL document CHEMBL6083197, “Design, synthesis, inhibitory activity, and molecular simulations study for d-glucose-conjugated thioureas containing pyrimidine ring as multitarget inhibitors against α-amylase, α-glucosidase, DDP-4, and PTP1B in Type 2 diabetes mellitus” (RSC Med Chem, 2024):
# Key:
# [1] = Inhibition of alpha-glucosidase (unknown origin) using p-nitrophenyl-glucopyranoside as substrate incubated for 10 mins; parameters: species or system Homo sapiens
# [2] = Inhibition of alpha-amylase (unknown origin) using starch as substrate incubated for 10 mins by DNS reagent based spectrometric assay; parameters: species or system Homo sapiens
# [3] = Inhibition of alpha-amylase (unknown origin) using starch as substrate preincubated for 10 mins followed by substrate addition and measured after 10 mins by DNSA reagent based spectrophotometric assay; parameters: species or system Homo sapiens
# [4] = Inhibition of alpha-amylase (unknown origin) using starch as substrate preincubated for 10 mins followed by substrate addition and measured after 10 mins by 3, 5-dinitrosalicylic acid reagent based microplate reader assay
# [5] = Inhibition of alpha-glucosidase (unknown origin) using p-nitrophenyl-alpha-D-glucoside as substrate preincubated for 5 mins followed by substrate addition and measured after 20 mins by microplate reader assay
# [6] = molecular target: T1, Dipeptidyl peptidase 4 (Homo sapiens, UniProt P27487); assay: Inhibition of recombinant human DPP-4 using Gly-Pro-AMC as substrate by fluorometric assay
# [7] = molecular target: T1, Dipeptidyl peptidase 4; assay: Inhibition of DPP-4 (unknown origin)
# T1 sequence (P27487 whole entry): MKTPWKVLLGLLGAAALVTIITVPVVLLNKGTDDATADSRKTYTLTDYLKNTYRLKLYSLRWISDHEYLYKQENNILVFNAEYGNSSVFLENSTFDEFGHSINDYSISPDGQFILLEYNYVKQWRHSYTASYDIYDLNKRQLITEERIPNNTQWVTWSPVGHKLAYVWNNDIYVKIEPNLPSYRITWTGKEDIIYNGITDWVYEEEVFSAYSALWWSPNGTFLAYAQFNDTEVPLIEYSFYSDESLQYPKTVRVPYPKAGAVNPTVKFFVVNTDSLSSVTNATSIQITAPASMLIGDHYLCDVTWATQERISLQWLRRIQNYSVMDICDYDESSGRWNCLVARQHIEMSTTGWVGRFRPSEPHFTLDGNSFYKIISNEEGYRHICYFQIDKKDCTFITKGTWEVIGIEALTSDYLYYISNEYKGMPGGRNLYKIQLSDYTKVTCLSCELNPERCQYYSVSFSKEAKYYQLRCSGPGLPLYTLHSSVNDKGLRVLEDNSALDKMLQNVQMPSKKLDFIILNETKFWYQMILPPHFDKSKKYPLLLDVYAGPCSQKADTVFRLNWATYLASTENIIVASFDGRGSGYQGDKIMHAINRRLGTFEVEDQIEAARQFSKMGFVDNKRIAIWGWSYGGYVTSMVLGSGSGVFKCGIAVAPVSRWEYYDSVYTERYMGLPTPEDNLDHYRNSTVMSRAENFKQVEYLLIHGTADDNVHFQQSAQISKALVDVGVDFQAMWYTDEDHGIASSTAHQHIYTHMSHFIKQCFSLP
compound,measurement,setting,value
CN(C)/C(N)=N/c1nc(-c2ccccc2)cc(-c2c[nH]c3ccccc23)n1,IC50,[1],55.98 µg/mL
same,IC50,[2],49.5 µg/mL
CCOC(=O)C1=C(C)NC(=O)NC1c1ccc(Nc2cccc3c2C(=O)c2ccccc2C3=O)cc1 (configuration not stated),IC50,[3],24.23 µg/mL
C[C@H]1O[C@H](O[C@H]2[C@H](O)[C@@H](O)[C@@H](O[C@H]3[C@H](O)[C@@H](O)C(O)O[C@@H]3CO)O[C@@H]2CO)[C@H](O)[C@@H](O)[C@@H]1N[C@H]1C=C(CO)[C@@H](O)[C@H](O)[C@H]1O (some centres not stated) [ACARBOSE],IC50,[4],9.32 µM
same,IC50,[5],7.2 µM
O=C(SC1=NC(c2ccc(Cl)cc2)=CC(c2ccc([N+](=O)[O-])cc2)N1)c1ccccc1CN1C(=O)c2ccccc2C1=O (configuration not stated),IC50,[6],0.00051 µM
Nc1nc(NC2=NC(c3ccccc3)=CC(c3cccc([N+](=O)[O-])c3)N2)nc(N2CCOCC2)n1 (configuration not stated),IC50,[7],0.0029 µM
